Test results published in PubChem BioAssay (NCI).
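Cells were grown in 96-well plates and exposed to each compound for 48 hours at five concentrations; endpoints were interpolated linearly between bracketing concentrations, or set to the highest concentration if not reached. GI50: concentration for 50% inhibition of growth. TGI: total growth inhibition.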

Columns and labels:
Assay in all cases: growth of human tumour cells (NCI), 48 h
A549 NSCLC = system: A549 NSCLC
COLO 205 colon = system: COLO 205 colon
EKVX NSCLC = system: EKVX NSCLC
HL-60(TB) leukemia = system: HL-60(TB) leukemia
M14 melanoma = system: M14 melanoma
RXF 393 renal = system: RXF 393 renal
SF-268 CNS = system: SF-268 CNS
SW-620 colon = system: SW-620 colon
U251 CNS = system: U251 CNS
UO-31 renal = system: UO-31 renal

Structure (SMILES)	GI50 (A549 NSCLC)	TGI (A549 NSCLC)	GI50 (COLO 205 colon)	TGI (COLO 205 colon)	GI50 (EKVX NSCLC)	TGI (EKVX NSCLC)	GI50 (HL-60(TB) leukemia)	TGI (HL-60(TB) leukemia)	GI50 (M14 melanoma)	TGI (M14 melanoma)	GI50 (RXF 393 renal)	TGI (RXF 393 renal)	GI50 (SF-268 CNS)	TGI (SF-268 CNS)	GI50 (SW-620 colon)	TGI (SW-620 colon)	GI50 (U251 CNS)	TGI (U251 CNS)	GI50 (UO-31 renal)	TGI (UO-31 renal)
N#C/C(=C/C=C/c1ccccc1)S(=O)c1ccccc1 (stereo not given)	2.17 µM	11.3 µM	0.482 µM	2.07 µM	0.899 µM	2.46 µM	0.288 µM	2.25 µM	0.655 µM	2.7 µM	0.385 µM	1.47 µM	0.392 µM	1.94 µM	0.337 µM	1.13 µM	0.483 µM	1.7 µM	0.4 µM	3.08 µM
O=C(c1cc2c(C(F)(F)F)onc2c2ccccc12)C(F)(F)F		> 72.1 µM		9.11 µM		> 33.3 µM		6.86 µM		> 58.6 µM		17.4 µM		19.9 µM		> 100 µM		4.76 µM		9.52 µM
CNC(=O)c1cncc(/C=C/c2c(C)cccc2C)c1	> 25 µM	> 25 µM	> 22.6 µM	> 25 µM	> 25 µM	> 25 µM	> 25 µM	> 25 µM	> 25 µM	> 25 µM	13.4 µM	> 25 µM	> 25 µM	> 25 µM	> 25 µM	> 25 µM	> 25 µM	> 25 µM	9.29 µM	> 25 µM
O=C1CC2C(=O)C1C(C(=O)O)C2C(=O)O (stereo not given)		> 100 µM		> 100 µM		> 100 µM		> 100 µM		> 100 µM		> 100 µM		> 100 µM		> 100 µM		> 100 µM		> 100 µM
N/C(=N\c1nc2ccccc2s1)NC(=O)Nc1ccccc1Cl	0.19 µM	18.1 µM	0.151 µM	2.13 µM	0.427 µM	> 100 µM	0.082 µM	0.688 µM	0.0509 µM	2.14 µM	0.0983 µM	1.56 µM	0.832 µM	> 44.2 µM	0.0883 µM	> 52.3 µM	0.122 µM	5.57 µM	0.197 µM	21.2 µM
CC(=O)Nc1ccc2oc(=O)c3ccccc3c2c1		> 100 µM		> 100 µM		> 100 µM		> 100 µM		> 100 µM		> 100 µM		> 100 µM		> 100 µM		> 100 µM		> 100 µM
O=C1/C(=C/c2ccccc2)CN(CCC(=O)N2C/C(=C\c3ccccc3)C(=O)/C(=C/c3ccccc3)C2)C/C1=C\c1ccccc1	29.3 µM	> 100 µM	12.4 µM	> 67.5 µM	18.2 µM	67.5 µM	13.7 µM	> 100 µM	4.13 µM	> 77.9 µM	6.65 µM	19.9 µM	12.2 µM	> 100 µM	0.495 µM	49.8 µM	1.29 µM	11.3 µM	7.51 µM	21.7 µM
NCC1OC(n2cnc3c(=O)[nH]c(N)nc32)C(O)C1O (stereo not given)		> 100 µM		> 100 µM		> 100 µM		> 100 µM		> 100 µM		> 100 µM		> 100 µM		> 100 µM		> 100 µM		> 100 µM
CCOC(=O)CNC1C(NC(C)=O)C(OC)OC2COC(c3ccccc3)OC21 (stereo not given)		> 100 µM		> 100 µM		> 100 µM		> 100 µM		> 100 µM		> 100 µM		> 100 µM		> 100 µM		> 100 µM		> 100 µM
COc1cc([C@@H]2c3cc4c(cc3[C@@H](NCc3ccc(C#N)cc3)C3COC(=O)[C@@H]32)OCO4)cc(OC)c1O (stereo not given in full)		1.54 µM		6.32 µM		5.76 µM		0.771 µM		6.55 µM		21.5 µM		6.6 µM		3.44 µM		1.55 µM		4.34 µM
CN(C)CCCN=c1cc2c(=O)n(CCCN(C)C)c(=O)c3c(NCCCN(C)C)cc4c(O)n(CCCN(C)C)c(=O)c1c4c3-2	0.525 µM	2.63 µM	1.03 µM	2.62 µM	3.06 µM	21.3 µM	15.1 µM	60.5 µM	5.87 µM	19.7 µM	1.77 µM	4.44 µM	0.964 µM	9.33 µM	0.79 µM	15.6 µM	0.418 µM	11 µM	2.92 µM	12.9 µM
O=C1/C(=C/c2ccccc2Br)COc2ccc(O)c(O)c21	2.17 µM	10.2 µM	1.96 µM	3.95 µM	2.09 µM	5.23 µM	0.379 µM	2.78 µM	1.53 µM	4.06 µM	1.66 µM	3.22 µM	1.6 µM	4.23 µM	1.34 µM	4.44 µM	1.09 µM	2.33 µM	0.804 µM	2.07 µM
CCCCCCCC(=O)OCC1OC(n2cc(F)c(=O)[nH]c2=O)C(NC(=O)OCc2ccccc2)C(OC(=O)CCCCCCC)C1O (stereo not given)		> 100 µM		68.3 µM		> 100 µM		40.8 µM		91.7 µM		64.2 µM		> 100 µM		> 100 µM		60.9 µM		0.865 µM
CCC(c1ccc(OC)cc1)C(CC)c1ccc(O)c(CN2CCCC2)c1 (stereo not given)	3.73 µM	13.8 µM	1.81 µM	3.71 µM	5.07 µM	19.3 µM	2.14 µM	4.76 µM	2.15 µM	5.08 µM	2.81 µM	7.55 µM	5.6 µM	21.5 µM	2.99 µM	9.07 µM	2.25 µM	5.67 µM	3.91 µM	17 µM
C[C@]12CC(C#N)C(=O)C(O)=C1CC[C@@H]1C2CC[C@@]2(C)C1CC[C@@H]2O (stereo not given in full)		> 100 µM		> 100 µM		> 100 µM		> 100 µM		> 100 µM		44.4 µM		> 100 µM		> 100 µM		> 100 µM		87.3 µM
CN(C1=NS(=O)(=O)N=C(N(C)c2ccccc2)O1)c1ccccc1		54.4 µM		46 µM		48.6 µM		33.7 µM		38.9 µM		20.4 µM		57 µM		30.3 µM		36.8 µM		37.6 µM
CC(C)(C)N1CC(OC(N)=O)C1	> 100 µM	> 100 µM	> 100 µM	> 100 µM	> 100 µM	> 100 µM	> 100 µM	> 100 µM	> 100 µM	> 100 µM	> 100 µM	> 100 µM	> 100 µM	> 100 µM	> 100 µM	> 100 µM	> 100 µM	> 100 µM	> 100 µM	> 100 µM
CC(C)c1cccc(C(C)C)c1N=C(N)C#N		> 61.1 µM		> 59.1 µM		> 100 µM		> 65.3 µM		> 100 µM		> 100 µM		> 100 µM		58.5 µM		> 93.2 µM		> 100 µM
